From paper PMC11284787, “Ligand-Directed Labeling of the Adenosine A1 Receptor in Living Cells” (Journal of Medicinal Chemistry, 2024) come the findings set out here.

Assay [1] concerns T1, endogenously expressed A1AR in DRG neurons.
T1 construct: supporting the potential of the probe for selectively labeling endogenously expressed A1ARs; from tissue; host or cells: primary dorsal root ganglion neurons from adult male Sprague-Dawley rats
Nature of the assay: Live-cell confocal imaging of dorsal root ganglion (DRG) neurons. It counts as cell-based, rat. From the text: Finally, we evaluated the utility of ligand-directed probe 11 to selectively label and visualize the localization and distribution of endogenously expressed A1AR in a physiologically relevant system. Studies have shown that activation of A1ARs expressed on peripheral nociceptive neurons produces analgesic effects,[14],[17],[71] thereby supporting the clinical potential of targeting the A1ARs for the treatment of neuropathic pain. Dorsal root ganglion (DRG) neurons are sensory cells involved in the transmission of pain and they are reported to express the A1AR[72]−[75] along with its cognate adenosine A2AAR[76]−[78] and A3AR[74],[79] receptor subtypes.
Figure 9 Live-cell confocal imaging of dorsal root ganglion (DRG) neurons labeled with SulfoCy5 by ligand-directed chemistry using probe 11 (250 nM). […] Left-hand side frames represent the SulfoCy5 channel, middle frames represent brightfield and right-hand side frames represent merged images from both channels. Images are representative of images acquired in four independent experiments. Scale bar: 10 μm. […]
(§1) plates (Nunc Lab-Tek, Thermo Fischer Scientific), pre-coated with Poly-D-Lysine, at 20,000 cells per well in DMEM/10% FCS. 24 h post seeding, cells were transiently transfected with human SNAP-A1. Transient transfections were carried out following manufacturer’s protocol: used FuGENE (Promega) HD at 3:1 ratio of reagent to cDNA with a total of 300 ng cDNA per well. Transfection solutions were made up in Gibco Opti-MEM (Thermo Fischer Scientific), incubated at RT for 5 min and added as 11 µL per well. Cells were incubated for additional 24 h at 37 OC, 5% CO2. Transient Transfection of NanoLuc-tagged human A 2AAR in HEK293T cell line was carried out as follows: 72 h prior to the experiment cells were removed from a confluent T75 flask and centrifuged. The pellet of cells was resuspended in 10 mL of fresh complete DMEM. […]

Another assay has as its target T2, NL-hA2AAR (Homo sapiens, UniProt P29274).
T2 construct: expressed in transfected cells; host or cells: HEK293T, transient transfection (FuGENE)
Nature of the assay: NanoBRET saturation ligand-binding assay, NL-hA2AAR. The note with it: HEK293T cells transiently expressing NL-hA2AAR, mean ± SEM; read-out: affinity values pKD, NL-hA2AAR (converted). The method, then: Probes 11 and 12 were further evaluated for their ability to bind the other three adenosine receptor subtypes (NL-A2AAR, NL-A2BAR, and NL-A3AR), and their ligand-binding properties were quantified in the NanoBRET saturation and inhibition binding assays, respectively (Table 1 and Figure 4). […]
as §1
37 °C for kinetic binding experiments. Emissions were read at 420 nm (80 nm bandpass; […]

T2 sequence (P29274 whole entry): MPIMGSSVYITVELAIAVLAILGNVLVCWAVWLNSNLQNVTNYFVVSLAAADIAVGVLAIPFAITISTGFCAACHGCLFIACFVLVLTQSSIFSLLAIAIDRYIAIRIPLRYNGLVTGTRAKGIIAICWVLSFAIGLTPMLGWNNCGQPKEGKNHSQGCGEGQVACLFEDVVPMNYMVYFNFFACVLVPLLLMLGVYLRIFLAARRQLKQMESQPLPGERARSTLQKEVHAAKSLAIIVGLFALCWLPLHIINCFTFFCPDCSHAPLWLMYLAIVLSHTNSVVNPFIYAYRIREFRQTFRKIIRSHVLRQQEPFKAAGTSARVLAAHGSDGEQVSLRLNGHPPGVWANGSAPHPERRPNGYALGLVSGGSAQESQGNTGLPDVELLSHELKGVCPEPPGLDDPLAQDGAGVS

`CCCCn1c(=O)c2[nH]c(C34CCC(C(=O)NCCNC(=O)CCNC(=O)c5ccc(OC(=O)CCCCC[N+]6=C(/C=C/C=C/C=C7/N(C)c8ccc(S(=O)(=O)O)cc8C7(C)C)C(C)(C)c7cc(S(=O)(=O)[O-])ccc76)c(F)c5)(CC3)CC4)nc2n(CCCC)c1=O` [Compound 11, 1-(6-(4-((3-((2-(4-(1,3-Dibutyl-2,6-dioxo-2,3,6,7-tetrahydro-1H-purin-8-yl)bicyclo[2.2.2]octane-1-carboxamido)ethyl)amino)-3-oxopropyl)carbamoyl)-2-fluorophenoxy)-6-oxohexyl)-3,3-dimethyl-2-((1E,3E)-5-((E)-1,3,3-trimethyl-5-sulfoindolin-2-ylidene)penta-1,3-dien-1-yl)-3H-indol-1-ium-5-sulfonate]: in assay [1] (250 nM, 2 h, adult Sprague-Dawley rat DRG), the “labeling of live DRG neurons” value is given as “SulfoCy5-labeling”. Besides, the “labeling of DRG neurons after pretreatment with ZM241385” value in assay [1] (10 μM A2AAR-selective antagonist ZM241385) is given as “did not prevent the SulfoCy5 labeling”. Also, the “fluorescence in DRG neurons after pretreatment with DPCPX” value in assay [1] (10 μM DPCPX pretreatment) is recorded as “negligible fluorescence signal”. The Kd on NL-hA2AAR is 245 nM.
